Source: ChEMBL document CHEMBL5291721, “A preclinical secondary pharmacology resource illuminates target-adverse drug reaction associations of marketed drugs” (Nat Commun, 2023)

How the values were obtained:
[1] = target: T1, Oxysterols receptor LXR-alpha (Homo sapiens, UniProt Q13133); assay type: functional
T1 sequence (Q13133 whole entry): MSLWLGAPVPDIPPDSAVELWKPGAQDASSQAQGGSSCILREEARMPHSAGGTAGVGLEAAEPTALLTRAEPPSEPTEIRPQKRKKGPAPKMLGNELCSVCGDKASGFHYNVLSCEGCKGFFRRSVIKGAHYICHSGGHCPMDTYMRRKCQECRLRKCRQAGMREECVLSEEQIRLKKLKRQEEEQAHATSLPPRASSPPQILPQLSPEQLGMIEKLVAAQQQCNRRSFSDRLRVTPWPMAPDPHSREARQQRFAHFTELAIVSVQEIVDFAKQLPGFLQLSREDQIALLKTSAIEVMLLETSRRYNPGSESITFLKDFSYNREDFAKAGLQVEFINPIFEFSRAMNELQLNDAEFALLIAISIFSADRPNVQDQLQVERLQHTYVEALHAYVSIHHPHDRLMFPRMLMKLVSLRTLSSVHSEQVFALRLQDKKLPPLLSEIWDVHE

[2] = target: T2, Retinoic acid receptor gamma (Homo sapiens, UniProt P13631); assay type: functional, cell-based
T2 sequence (P13631 whole entry): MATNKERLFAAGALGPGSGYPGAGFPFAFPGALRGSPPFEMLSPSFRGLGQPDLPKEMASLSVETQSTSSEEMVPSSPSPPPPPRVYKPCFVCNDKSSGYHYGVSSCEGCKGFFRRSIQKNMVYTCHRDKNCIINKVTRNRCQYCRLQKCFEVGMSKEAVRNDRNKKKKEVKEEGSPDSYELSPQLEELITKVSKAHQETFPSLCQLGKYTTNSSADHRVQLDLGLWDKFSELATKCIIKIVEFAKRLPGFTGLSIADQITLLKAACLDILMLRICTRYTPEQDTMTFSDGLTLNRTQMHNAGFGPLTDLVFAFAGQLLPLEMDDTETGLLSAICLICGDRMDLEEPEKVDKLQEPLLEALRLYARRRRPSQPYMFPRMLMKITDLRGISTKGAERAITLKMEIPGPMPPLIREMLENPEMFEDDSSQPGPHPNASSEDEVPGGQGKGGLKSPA

[3] = target: T3, Alpha-2A adrenergic receptor (Homo sapiens, UniProt P08913)
T3 sequence (P08913 whole entry): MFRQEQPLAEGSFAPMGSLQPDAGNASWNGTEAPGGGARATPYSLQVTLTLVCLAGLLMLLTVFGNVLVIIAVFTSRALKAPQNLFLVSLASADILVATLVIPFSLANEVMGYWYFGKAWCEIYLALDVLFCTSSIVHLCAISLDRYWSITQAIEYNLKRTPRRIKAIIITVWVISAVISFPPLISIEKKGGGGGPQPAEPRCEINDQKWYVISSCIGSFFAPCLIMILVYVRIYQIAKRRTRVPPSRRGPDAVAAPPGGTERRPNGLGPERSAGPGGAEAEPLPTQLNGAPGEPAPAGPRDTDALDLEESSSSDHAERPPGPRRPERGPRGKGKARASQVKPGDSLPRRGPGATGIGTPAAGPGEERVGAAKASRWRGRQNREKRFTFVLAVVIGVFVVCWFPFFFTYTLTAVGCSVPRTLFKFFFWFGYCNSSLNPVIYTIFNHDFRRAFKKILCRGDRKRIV

Histamine H3 receptor = Histamine H3 receptor (Homo sapiens, UniProt Q9Y5N1)
Chain of Histamine H3 receptor (Q9Y5N1 whole entry): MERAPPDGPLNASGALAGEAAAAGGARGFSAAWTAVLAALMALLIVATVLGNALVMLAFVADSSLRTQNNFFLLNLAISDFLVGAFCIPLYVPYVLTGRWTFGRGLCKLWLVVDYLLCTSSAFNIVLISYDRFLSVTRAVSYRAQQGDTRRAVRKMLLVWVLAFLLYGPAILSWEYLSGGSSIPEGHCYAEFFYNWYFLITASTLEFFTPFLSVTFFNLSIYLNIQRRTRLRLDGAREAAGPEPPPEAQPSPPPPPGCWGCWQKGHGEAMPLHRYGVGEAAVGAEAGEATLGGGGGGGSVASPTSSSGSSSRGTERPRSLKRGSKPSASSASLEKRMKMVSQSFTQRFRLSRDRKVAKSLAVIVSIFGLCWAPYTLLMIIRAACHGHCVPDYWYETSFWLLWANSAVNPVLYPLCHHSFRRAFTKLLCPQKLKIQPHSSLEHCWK

[4] = target: 5-hydroxytryptamine receptor 2B (Homo sapiens, UniProt P41595); assay type: functional, cell-based
Chain of 5-hydroxytryptamine receptor 2B (P41595 whole entry): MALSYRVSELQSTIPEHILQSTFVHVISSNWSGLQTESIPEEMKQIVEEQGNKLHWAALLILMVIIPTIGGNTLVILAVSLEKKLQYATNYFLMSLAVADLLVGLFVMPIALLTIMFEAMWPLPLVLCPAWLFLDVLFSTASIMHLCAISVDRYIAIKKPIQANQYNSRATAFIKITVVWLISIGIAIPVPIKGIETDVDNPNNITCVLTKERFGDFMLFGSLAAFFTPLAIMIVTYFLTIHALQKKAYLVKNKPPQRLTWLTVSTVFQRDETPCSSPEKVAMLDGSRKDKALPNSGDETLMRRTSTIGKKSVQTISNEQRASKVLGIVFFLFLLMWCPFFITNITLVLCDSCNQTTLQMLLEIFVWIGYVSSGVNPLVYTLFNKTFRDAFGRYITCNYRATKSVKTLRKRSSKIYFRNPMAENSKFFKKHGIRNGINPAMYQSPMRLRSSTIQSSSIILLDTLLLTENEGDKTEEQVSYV

[5] = target: Gamma-aminobutyric acid receptor subunit alpha-1 (Rattus norvegicus, UniProt P62813)
Chain of Gamma-aminobutyric acid receptor subunit alpha-1 (P62813 whole entry): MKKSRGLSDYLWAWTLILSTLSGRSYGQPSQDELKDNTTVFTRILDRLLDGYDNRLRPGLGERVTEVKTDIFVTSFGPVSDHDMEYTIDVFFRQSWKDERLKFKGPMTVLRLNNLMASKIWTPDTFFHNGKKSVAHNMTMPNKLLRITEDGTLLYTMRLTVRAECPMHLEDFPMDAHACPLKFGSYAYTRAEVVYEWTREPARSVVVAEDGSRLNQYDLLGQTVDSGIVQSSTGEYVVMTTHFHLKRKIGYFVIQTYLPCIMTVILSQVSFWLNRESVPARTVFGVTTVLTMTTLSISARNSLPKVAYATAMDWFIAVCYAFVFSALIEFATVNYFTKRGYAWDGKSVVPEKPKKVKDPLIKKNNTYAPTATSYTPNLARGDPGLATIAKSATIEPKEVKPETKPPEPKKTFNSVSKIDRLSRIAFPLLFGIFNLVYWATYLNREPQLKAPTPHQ

Progesterone receptor = target: T4, Progesterone receptor (Homo sapiens, UniProt P06401)
T4 sequence (P06401 whole entry): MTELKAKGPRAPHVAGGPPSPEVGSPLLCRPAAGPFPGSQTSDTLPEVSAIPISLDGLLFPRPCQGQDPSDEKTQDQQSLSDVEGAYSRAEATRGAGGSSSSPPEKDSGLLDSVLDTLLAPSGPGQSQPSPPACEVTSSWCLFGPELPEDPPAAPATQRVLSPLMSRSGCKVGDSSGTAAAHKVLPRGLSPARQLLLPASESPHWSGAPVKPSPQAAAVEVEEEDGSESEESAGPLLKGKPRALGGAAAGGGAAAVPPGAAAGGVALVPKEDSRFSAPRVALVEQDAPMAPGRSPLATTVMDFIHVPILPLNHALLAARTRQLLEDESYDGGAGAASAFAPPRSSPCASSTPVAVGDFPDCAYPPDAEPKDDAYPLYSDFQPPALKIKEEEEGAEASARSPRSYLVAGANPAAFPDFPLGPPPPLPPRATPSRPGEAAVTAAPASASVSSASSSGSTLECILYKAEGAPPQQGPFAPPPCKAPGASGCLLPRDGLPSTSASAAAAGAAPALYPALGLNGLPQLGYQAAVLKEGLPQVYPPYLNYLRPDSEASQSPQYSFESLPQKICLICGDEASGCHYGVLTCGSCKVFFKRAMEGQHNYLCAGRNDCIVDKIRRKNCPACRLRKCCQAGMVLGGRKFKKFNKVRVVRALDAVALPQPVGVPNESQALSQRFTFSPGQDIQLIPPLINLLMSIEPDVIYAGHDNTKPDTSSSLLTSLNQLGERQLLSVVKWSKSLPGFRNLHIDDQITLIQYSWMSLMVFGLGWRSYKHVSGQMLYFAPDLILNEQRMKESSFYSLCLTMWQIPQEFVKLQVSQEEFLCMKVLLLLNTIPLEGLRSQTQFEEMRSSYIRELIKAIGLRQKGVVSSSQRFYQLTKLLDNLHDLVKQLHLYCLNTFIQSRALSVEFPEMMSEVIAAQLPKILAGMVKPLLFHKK

D(1A) dopamine receptor = D(1A) dopamine receptor (Homo sapiens, UniProt P21728)
Chain of D(1A) dopamine receptor (P21728 whole entry): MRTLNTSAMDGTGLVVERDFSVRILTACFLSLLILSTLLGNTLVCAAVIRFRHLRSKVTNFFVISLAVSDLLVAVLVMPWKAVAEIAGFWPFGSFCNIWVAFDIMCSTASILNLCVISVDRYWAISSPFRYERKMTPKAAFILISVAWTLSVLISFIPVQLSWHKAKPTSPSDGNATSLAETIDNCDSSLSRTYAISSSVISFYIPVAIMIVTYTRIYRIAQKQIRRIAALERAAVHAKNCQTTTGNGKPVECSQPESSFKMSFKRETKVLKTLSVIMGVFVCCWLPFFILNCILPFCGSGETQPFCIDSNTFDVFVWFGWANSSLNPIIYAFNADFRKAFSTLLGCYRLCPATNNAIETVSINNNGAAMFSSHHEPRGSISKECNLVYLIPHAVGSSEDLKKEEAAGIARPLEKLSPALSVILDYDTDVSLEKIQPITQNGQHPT

Measured: AC50
Further: assay procedure not described here.

CC(C)c1c(C(=O)Nc2ccccc2)c(-c2ccccc2)c(-c2ccc(F)cc2)n1CC[C@@H](O)C[C@@H](O)CC(=O)O [ATORVASTATIN]
> 30 µM: [1] | [2]

Nc1nc2ccc(OC(F)(F)F)cc2s1 [RILUZOLE]
> 30 µM: [3] | Histamine H3 receptor | [4] | [5] | Progesterone receptor

BIVALIRUDIN
not listed: [1] | [2]
> 30 µM: all other assays above
